From US11230547B2, “Purine inhibitors of human phosphatidylinositol 3-kinase delta” (Merck Sharp & Dohme Corp., priority 2017, dated 2022)

Legend:
PI3Kdelta = PI3Kdelta (Homo sapiens (Human), UniProt O00329); assay: HTRF PI3K biochemical assay, delta isoform; conditions: 0.3 nM enzyme, 100 uM ATP, 5 uM PIP2, form screened per table
Outline: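 PI3Kδ at 0.3 nM preincubated 15 min with compound, then reacted 1 h at room temperature with 100 uM ATP and 5 uM PIP2. PIP3 product detected by competitive HTRF displacing biotin-PIP3 from GST-GRP1 PH domain, so signal falls with activity. 10-point 3-fold dose response.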

PI3Kalpha = PI3Kalpha (Homo sapiens (Human), UniProt P42336); assay: HTRF PI3K biochemical assay, alpha isoform (selectivity versus delta); conditions: relative ratio PI3K-alpha IC50 value / PI3K-delta IC50 value
Outline: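 Recombinant human PI3Kα (0.5 nM) preincubated 15 min with compound, then reacted 1 h at room temperature with 100 uM ATP and 5 uM PIP2. PIP3 formation detected by HTRF competition with biotin-PIP3 for GST-GRP1 PH domain (Eu/APC, 665/620 nm); product lowers signal.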

Chain of PI3Kalpha (P42336 whole entry, the tested form may be a part, canonical isoform): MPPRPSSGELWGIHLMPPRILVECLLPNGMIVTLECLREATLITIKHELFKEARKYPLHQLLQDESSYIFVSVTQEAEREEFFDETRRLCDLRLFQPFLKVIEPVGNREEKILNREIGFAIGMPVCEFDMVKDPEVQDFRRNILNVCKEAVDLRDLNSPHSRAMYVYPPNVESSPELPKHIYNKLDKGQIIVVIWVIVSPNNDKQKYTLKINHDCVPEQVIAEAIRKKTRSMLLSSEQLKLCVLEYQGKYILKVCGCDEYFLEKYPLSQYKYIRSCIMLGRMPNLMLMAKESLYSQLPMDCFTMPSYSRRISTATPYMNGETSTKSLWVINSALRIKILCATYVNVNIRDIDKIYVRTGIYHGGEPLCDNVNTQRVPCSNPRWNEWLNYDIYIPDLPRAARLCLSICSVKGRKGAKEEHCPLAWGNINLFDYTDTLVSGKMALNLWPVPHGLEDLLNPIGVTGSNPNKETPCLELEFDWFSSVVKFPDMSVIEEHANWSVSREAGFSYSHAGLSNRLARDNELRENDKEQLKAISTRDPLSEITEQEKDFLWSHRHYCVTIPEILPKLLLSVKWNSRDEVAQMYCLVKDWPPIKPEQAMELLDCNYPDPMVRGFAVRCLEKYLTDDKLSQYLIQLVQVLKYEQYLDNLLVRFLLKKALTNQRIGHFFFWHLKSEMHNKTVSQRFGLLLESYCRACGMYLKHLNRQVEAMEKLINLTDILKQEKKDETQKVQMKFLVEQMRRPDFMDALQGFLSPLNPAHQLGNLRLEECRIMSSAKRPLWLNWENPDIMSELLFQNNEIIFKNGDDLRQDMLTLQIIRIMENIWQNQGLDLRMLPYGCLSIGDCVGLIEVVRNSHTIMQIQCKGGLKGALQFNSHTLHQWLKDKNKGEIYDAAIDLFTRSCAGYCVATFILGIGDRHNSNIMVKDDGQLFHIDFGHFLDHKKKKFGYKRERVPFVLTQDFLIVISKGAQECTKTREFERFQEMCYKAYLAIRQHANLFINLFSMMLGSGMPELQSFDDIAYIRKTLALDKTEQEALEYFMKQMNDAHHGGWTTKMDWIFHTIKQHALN
Chain of PI3Kalpha (P27986 whole entry partner, the tested form may be a part, canonical isoform): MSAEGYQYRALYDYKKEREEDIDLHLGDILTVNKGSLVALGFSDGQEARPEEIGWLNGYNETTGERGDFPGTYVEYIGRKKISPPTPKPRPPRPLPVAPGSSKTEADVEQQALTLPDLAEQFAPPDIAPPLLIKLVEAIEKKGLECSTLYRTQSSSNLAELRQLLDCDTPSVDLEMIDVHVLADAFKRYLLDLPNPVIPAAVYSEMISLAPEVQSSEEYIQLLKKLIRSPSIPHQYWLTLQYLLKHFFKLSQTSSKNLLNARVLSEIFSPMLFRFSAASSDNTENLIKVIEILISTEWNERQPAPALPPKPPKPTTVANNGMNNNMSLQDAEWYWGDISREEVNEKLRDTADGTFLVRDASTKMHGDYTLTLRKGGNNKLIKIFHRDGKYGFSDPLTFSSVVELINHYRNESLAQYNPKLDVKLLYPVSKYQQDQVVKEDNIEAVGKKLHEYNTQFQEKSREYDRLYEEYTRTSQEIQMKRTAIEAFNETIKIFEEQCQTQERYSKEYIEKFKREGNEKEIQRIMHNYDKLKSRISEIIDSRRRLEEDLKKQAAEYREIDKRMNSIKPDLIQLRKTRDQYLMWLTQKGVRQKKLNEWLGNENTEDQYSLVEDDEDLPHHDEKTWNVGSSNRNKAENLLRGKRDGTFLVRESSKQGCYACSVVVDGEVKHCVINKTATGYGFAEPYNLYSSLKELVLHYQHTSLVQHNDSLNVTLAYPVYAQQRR
Chain of PI3Kdelta (O00329 whole entry, the tested form may be a part, canonical isoform): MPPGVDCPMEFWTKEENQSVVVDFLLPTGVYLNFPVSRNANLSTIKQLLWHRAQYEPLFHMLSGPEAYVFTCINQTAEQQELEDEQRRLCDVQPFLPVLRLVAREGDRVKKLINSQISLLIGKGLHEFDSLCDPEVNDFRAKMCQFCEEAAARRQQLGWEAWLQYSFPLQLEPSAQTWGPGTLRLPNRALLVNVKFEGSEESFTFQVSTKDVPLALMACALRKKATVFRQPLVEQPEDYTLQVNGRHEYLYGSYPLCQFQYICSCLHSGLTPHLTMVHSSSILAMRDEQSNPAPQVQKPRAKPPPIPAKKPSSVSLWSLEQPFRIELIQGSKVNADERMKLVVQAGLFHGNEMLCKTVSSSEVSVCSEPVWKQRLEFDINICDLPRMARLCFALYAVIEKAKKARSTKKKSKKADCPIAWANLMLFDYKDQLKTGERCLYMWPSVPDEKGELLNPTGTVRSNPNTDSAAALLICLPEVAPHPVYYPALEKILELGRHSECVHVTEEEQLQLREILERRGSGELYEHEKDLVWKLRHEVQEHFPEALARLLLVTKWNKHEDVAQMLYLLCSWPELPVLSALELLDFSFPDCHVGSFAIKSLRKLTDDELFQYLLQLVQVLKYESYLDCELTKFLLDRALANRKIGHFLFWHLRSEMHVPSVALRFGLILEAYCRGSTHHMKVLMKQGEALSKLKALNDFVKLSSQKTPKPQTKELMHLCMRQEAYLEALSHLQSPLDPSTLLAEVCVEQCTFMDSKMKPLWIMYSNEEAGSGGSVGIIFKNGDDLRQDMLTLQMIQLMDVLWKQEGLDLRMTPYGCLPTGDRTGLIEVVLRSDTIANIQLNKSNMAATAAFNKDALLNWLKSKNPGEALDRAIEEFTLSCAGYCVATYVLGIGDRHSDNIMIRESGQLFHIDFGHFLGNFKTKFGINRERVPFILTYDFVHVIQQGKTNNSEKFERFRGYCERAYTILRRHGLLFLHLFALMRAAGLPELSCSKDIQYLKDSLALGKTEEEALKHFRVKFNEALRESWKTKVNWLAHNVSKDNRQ
Chain of PI3Kdelta (P27986 whole entry partner, the tested form may be a part, canonical isoform): as the sequence (P27986 whole entry partner, the tested form may be a part, canonical isoform) above

Row | Structure (SMILES) | IC50 (PI3Kdelta) [nM] | Selectivity versus PI3Kalpha (PI3Kalpha)
1 | N#Cc1cnc(-c2cn[nH]c2)nc1N1C[C@@H]2C[C@H]1CN2c1cccc(F)c1 [Compound 1-7, 4-[(1S,4S)-5-(3-fluorophenyl)-2,5-diazabicyclo[2.2.1]hept-2-yl]-2-(1H-pyrazol-4-yl)pyrimidine-5-carbonitrile] | 42 | >10
2 | C[C@@H]1CN(c2nc(-c3cnn(C)c3)nc(NCCC(F)(F)F)c2C#N)CCN1C(=O)C1CC1 [Compound 6-19, 4-[(3R)-4-(cyclopropylcarbonyl)-3-methylpiperazin-1-yl]-2-(1-methyl-1H-pyrazol-4-yl)-6-[(3,3,3-trifluoropropyl)amino]pyrimidine-5-carbonitrile] | 9.4 | >10
3 | CC(C)Nc1nc(-c2cnn(C)c2)nc(N2CCN(C(=O)C3CC3)[C@H](C)C2)c1C#N [Compound 6-20, 4-[(3R)-4-(cyclopropylcarbonyl)-3-methylpiperazin-1-yl]-6-[(1-methylethyl)amino]-2-(1-methyl-1H-pyrazol-4-yl)pyrimidine-5-carbonitrile] | 150 | >10
4 | C[C@@H]1CN(c2nc(-c3cnn(C)c3)nc(N)c2C#N)CCN1C(=O)C1CC1 [Compound 6-1, 4-amino-6-[(3R)-4-(cyclopropylcarbonyl)-3-methylpiperazin-1-yl]-2-(1-methyl-1H-pyrazol-4-yl)pyrimidine-5-carbonitrile] | 130 | >10
5 | CCOC(=O)c1cnc(N2CCN(C(=O)C3CC3)[C@H](C)C2)nc1-c1cnn(C)c1 [Compound 5-12, ethyl 2-[(3R)-4-(cyclopropylcarbonyl)-3-methylpiperazin-1-yl]-4-(1-methyl-1H-pyrazol-4-yl)pyrimidine-5-carboxylate] | 180 | >10
6 | C#Cc1cnc(N2CCN(C(=O)C3CC3)[C@H](C)C2)nc1-c1cnn(C)c1 [Compound 5-9, 2-[(3R)-4-(cyclopropylcarbonyl)-3-methylpiperazin-1-yl]-5-ethynyl-4-(1-methyl-1H-pyrazol-4-yl)pyrimidine] | 50 | >10
7 | CNC(=O)c1cccc(N2C[C@@H]3CC2CN3c2nc(-c3cnn(C)c3)ncc2C#N)c1 (stereo in doubt) [Compound 1-13, 3-{(1R,4S)-5-[5-cyano-2-(1-methyl-1H-pyrazol-4-yl)pyrimidin-4-yl]-2,5-diazabicyclo[2.2.1]hept-2-yl}-N-methylbenzamide] | 97 | >10
8 | CC(C)CNc1nc(-c2cnn(C)c2)nc(N2CCN(C(=O)C3CC3)[C@H](C)C2)c1C#N [Compound 6-21, 4-[(3R)-4-(cyclopropylcarbonyl)-3-methylpiperazin-1-yl]-6-[(2-methylpropyl)amino]-2-(1-methyl-1H-pyrazol-4-yl)pyrimidine-5-carbonitrile] | 21 | >10
9 | N#Cc1cnc(-c2cccc3[nH]ncc23)nc1N1C[C@@H]2CC1CN2c1cccc(F)c1 (stereo in doubt) [Compound 1-20, 4-[(1R,4S)-5-(3-fluorophenyl)-2,5-diazabicyclo[2.2.1]hept-2-yl]-2-(1H-indazol-4-yl)pyrimidine-5-carbonitrile] | 200 | 9
10 | CCCS(=O)(=O)N1C[C@@H]2CC1CN2c1nc(-c2cnn(C)c2)ncc1C#N (stereo in doubt) [Compound 2-14, 2-(1-methyl-1H-pyrazol-4-yl)-4-[(1S,4R)-5-(propylsulfonyl)-2,5-diazabicyclo[2.2.1]hept-2-yl]pyrimidine-5-carbonitrile] | 620 | >10
11 | C[C@@H]1CN(c2nc(-c3cnn(C)c3)ncc2C#N)CCN1c1cccc(C#N)c1 [Compound 4-12, 4-[(3R)-4-(3-cyanophenyl)-3-methylpiperazin-1-yl]-2-(1-methyl-1H-pyrazol-4-yl)pyrimidine-5-carbonitrile] | 86 | >10
12 | CCC(=O)N1CCN(c2nc(-c3cnn(C)c3)ncc2C#N)C[C@H]1C [Compound 4-2, 4-[(3R)-3-methyl-4-propanoylpiperazin-1-yl]-2-(1-methyl-1H-pyrazol-4-yl)pyrimidine-5-carbonitrile] | 260 | >10
13 | C[C@@H]1CN(c2nc(-c3cnn(C)c3)ncc2C#N)CCN1C(=O)C1CC12CCCC2 (stereo partly drawn) [Compound 4-7, 2-(1-methyl-1H-pyrazol-4-yl)-4-[(3R)-3-methyl-4-(spiro[2.4]hept-1-ylcarbonyl)piperazin-1-yl]pyrimidine-5-carbonitrile] | 87 | >10
14 | C[C@@H]1CN(c2nc(-c3cnn(C)c3)nc(NC3CCC3)c2C#N)CCN1C(=O)C1CC1 [Compound 6-7, 4-(cyclobutylamino)-6-[(3R)-4-(cyclopropylcarbonyl)-3-methylpiperazin-1-yl]-2-(1-methyl-1H-pyrazol-4-yl)pyrimidine-5-carbonitrile] | 80 | >10
15 | N#Cc1cnc(N2Cc3cn[nH]c3C2)nc1N1CC2C[C@H]1CN2c1cccc(F)c1 (stereo in doubt) [Compound 1-3, 2-(4,6-dihydropyrrolo[3,4-c]pyrazol-5(1H)-yl)-4-[(1S,4R)-5-(3-fluorophenyl)-2,5-diazabicyclo[2.2.1]hept-2-yl]pyrimidine-5-carbonitrile] | 86 | >10
16 | CC(=O)Nc1nc(-c2cnn(C)c2)nc(N2CCN(C(=O)C3CC3)[C@H](C)C2)c1C#N [Compound 6-3, N-{5-cyano-6-[(3R)-4-(cyclopropylcarbonyl)-3-methylpiperazin-1-yl]-2-(1-methyl-1H-pyrazol-4-yl)pyrimidin-4-yl}acetamide] | 480 | >10
17 | Cn1cc(-c2ncc(C#N)c(N3CC4C[C@H]3CN4c3cccnc3)n2)cn1 (stereo in doubt) [Compound 1-6, 2-(1-methyl-1H-pyrazol-4-yl)-4-[(1S,4R)-5-pyridin-3-yl-2,5-diazabicyclo[2.2.1]hept-2-yl]pyrimidine-5-carbonitrile] | 110 | >10
18 | C[C@@H]1CN(c2nc(Cl)c(C#N)c(-c3cnn(C)c3)n2)CCN1C(=O)C1CC1 [Compound 6-9, 4-chloro-2-[(3R)-4-(cyclopropylcarbonyl)-3-methylpiperazin-1-yl]-6-(1-methyl-1H-pyrazol-4-yl)pyrimidine-5-carbonitrile] | 30 | >10
19 | Cn1cc(-c2ncc(C#N)c(N3CCN(C(=O)C4CC4)[C@H](CO)C3)n2)cn1 [Compound 5-7, 4-[(3S)-4-(cyclopropylcarbonyl)-3-(hydroxymethyl)piperazin-1-yl]-2-(1-methyl-1H-pyrazol-4-yl)pyrimidine-5-carbonitrile] | 760 | >10
20 | Cn1cc(-c2ncc(C#N)c(N3CCN(c4cccc(F)c4)C(C)(C)C3)n2)cn1 [Compound 3-1, 4-[4-(3-fluorophenyl)-3,3-dimethylpiperazin-1-yl]-2-(1-methyl-1H-pyrazol-4-yl)pyrimidine-5-carbonitrile] | 1500 | 8
21 | C[C@@H]1CN(c2cc(C#N)nc(-c3cnn(C)c3)n2)CCN1C(=O)C1CC1 [Compound 5-3, 6-[(3R)-4-(cyclopropylcarbonyl)-3-methylpiperazin-1-yl]-2-(1-methyl-1H-pyrazol-4-yl)pyrimidine-4-carbonitrile] | 240 | >10
22 | N#Cc1cnc(N2CCc3[nH]ncc3C2)nc1N1CC2C[C@H]1CN2c1cccc(F)c1 (stereo in doubt) [Compound 1-22, 4-[(1S,4R)-5-(3-fluorophenyl)-2,5-diazabicyclo[2.2.1]hept-2-yl]-2-(1,4,6,7-tetrahydro-5H-pyrazolo[4,3-c]pyridin-5-yl)pyrimidine-5-carbonitrile] | 950 | 10
23 | CSc1cnc(N2CCN(C(=O)C3CC3)[C@H](C)C2)nc1-c1cnn(C)c1 [Compound 5-10, 2-[(3R)-4-(cyclopropylcarbonyl)-3-methylpiperazin-1-yl]-4-(1-methyl-1H-pyrazol-4-yl)-5-(methylsulfanyl)pyrimidine] | 340 | >10
24 | CCCc1nc(N2CCN(C(=O)C3CC3)[C@H](C)C2)nc(-c2cnn(C)c2)c1C#N [Compound 6-25, 2-[(3R)-4-(cyclopropylcarbonyl)-3-methylpiperazin-1-yl]-4-(1-methyl-1H-pyrazol-4-yl)-6-propylpyrimidine-5-carbonitrile] | 10 | >10
25 | Cn1cc(-c2ncc(C#N)c(N3CC4C[C@H]3CN4CCCF)n2)cn1 (stereo in doubt) [Compound 2-16, 4-[(1S,4R)-5-(3-fluoropropyl)-2,5-diazabicyclo[2.2.1]hept-2-yl]-2-(1-methyl-1H-pyrazol-4-yl)pyrimidine-5-carbonitrile] | 970 | >10
26 | C[C@@H]1CN(c2nc(-c3cnn(C)c3)nc(Nc3ccccc3)c2C#N)CCN1C(=O)C1CC1 [Compound 6-8, 4-[(3R)-4-(cyclopropylcarbonyl)-3-methylpiperazin-1-yl]-2-(1-methyl-1H-pyrazol-4-yl)-6-(phenylamino)pyrimidine-5-carbonitrile] | 19 | >10
27 | Cn1cc(-c2ncc(C#N)c(N3CC4C[C@H]3CN4c3ccc(C(F)F)nc3)n2)cn1 (stereo in doubt) [Compound 1-4, 4-{(1S,4R)-5-[6-(difluoromethyl)pyridin-3-yl]-2,5-diazabicyclo[2.2.1]hept-2-yl}-2-(1-methyl-1H-pyrazol-4-yl)pyrimidine-5-carbonitrile] | 540 | >10
